Article PMC6663621 (Cancer, 2019)
Values joined by “and” are separate entries in the source; they are usually repeats but may differ in a detail not shown here. Equal entries are not always repeated. Where two headings read alike, the source gives them in different places.

How the values were obtained:
[1] = clinical; conditions: human, plasma
[2] = plasma, Cohort 1, CC-486 dose 200 mg oral, Cycle 1 Day 1, actual values (n=2)
[3] = plasma, Cohorts 2 and 3, CC-486 dose 300 mg oral, Cycle 1 Day 1, mean ± SD

SMILES | Tmax ([1]; oral) [h] | Cmax ([1]; po, 200 mg) [ng/mL] | Tmax ([1]; po, 200 mg) [h] | Cmax ([1]; po, 300 mg) [ng/mL] | Tmax ([1]; po, 300 mg) [h] | difference in dose-normalized exposure, apparent clearance, apparent volume of distribution or half-life (200 or 300 mg CC-486) | AUCINF [2] [ng·h/mL] | Cl/F [2] | V/F [2] | t1/2 [2] [h] | Cl/F [3] | V/F [3] | Cmax ([1]; iv, 8 mg/m2) [ng/mL] | Tmax ([1]; iv, 8 mg/m2) [h] | clearance ([1]; iv, 8 mg/m2) [mL/min]
Nc1ncn([C@@H]2O[C@H](CO)[C@@H](O)[C@H]2O)c(=O)n1 [5-azacitidine] | ~1 | 324 ± 157 | 1 | 226 ± 130 | 1.08 | no difference | 538 | 372 L/h and 373 L/h | 293 L and 319 L | 0.59 | 922 ± 892 (10) L/h | 731 ± 557 (10) L | – | – | –
C/C=C1\NC(=O)[C@H]2CSSCC/C=C/[C@H](CC(=O)N[C@H](C(C)C)C(=O)N2)OC(=O)[C@H](C(C)C)NC1=O [romidepsin] | – | – | – | – | – | – | – | – | – | – | – | – | 455 ± 255 | 4 | 178
